Paper PMC8066331, “Anticancer Activity of Triazolo-Thiadiazole Derivatives and Inhibition of AKT1 and AKT2 Activation” (Pharmaceutics, 2021)

Key:
Akt1 phosphorylation = test: Detection of Akt1 phosphorylation by intracellular flow cytometry; type: cell-based, human; settings: for decrease of Akt1 phospho-form: HT-29 cells; for phosphorylation of Akt1: GI50 and TGI concentrations
Description: (§1) To investigate whether KA25 and KA39 triazolo[3,4-b]thiadiazole derivatives inhibit the phosphorylation of Akt1 and Akt2 isoforms, three colorectal cancer cell lines including HT-29, LoVo, and SW403 were intracellularly stained upon treatment with the two referred compounds. Firstly, cells were seeded into a 6-well plate at a density of 7 × 10^5 cells/well and maintained at 37 °C in a […]. After 24 h of cell growth, the culture medium was discarded and replaced with 2 mL of fresh medium. […] The required GI50 and TGI concentrations (μΜ) of the KA25 and KA39 derivatives in HT-29 and LoVo cells have been determined in previous studies. To estimate the TGI concentration (μΜ) of the KA25 compound in SW403 cells, further MTT assays were carried out as previously described. Following drug exposure at the mentioned treatment conditions, the cells were collected after being washed with ice-cold PBS (pH = 7.4) and detached enzymatically with standard trypsinization. Two centrifugations were followed at 1500 rpm for 5 min, including two washing steps with 2 mL of cell staining buffer (BioLegend, San Diego, CA, USA). Cell pellets were fixed with 500 μL of pre-warmed fixation buffer (BioLegend, San Diego, CA, USA) and incubated at 37 °C for 15 min. Afterwards, one centrifugation was carried out at 1000 rpm for 5 min, followed by supernatant discard and resuspension of cell pellet through vortex. Then, the cells were washed with 2 mL of cell staining buffer twice, including two centrifugations at 1000 rpm for 5 min at room temperature. After the cell pellet was resuspended with gentle pipetting, cells were permeabilized by adding 1000 μL of pre-chilled True-Phos Permeabilization buffer (BioLegend, San Diego, CA, USA) while vortexing. Following overnight incubation at −20 °C, the cells were centrifuged at 2000 rpm for 5 min and the supernatant was discarded. After the cell pellet was resuspended by vortexing, two centrifugations were performed at 2000 rpm for 5 min including two washes with 2 mL of cell staining buffer. The cell pellet was resuspended with 200 μL of cell staining buffer, and equal volumes were transferred into the appropriate tubes. To detect total Akt1 and Akt2, 2 μL of purified anti-Akt1 and anti-Akt2 (BioLegend, San Diego, CA, USA) was added, respectively. Additionally, 2 μL of purified anti-Akt phospho(Ser473) (BioLegend, San Diego, CA, USA) was added for the detection of either phosphorylated AKT1 or AKT2. Furthermore, a cocktail of isotype controls (5 μL of purified mouse IgG1, 5 μL of purified mouse IgG2b, and 1 μL of purified rabbit polyclonal isotype control antibody) was used to differentiate nonspecific background signals from specific antibody signals. The cells were incubated for 30 min at room temperature in the dark and then stained with 5 μL of phycoerythrin (PE) donkey anti-rabbit IgG and 2 μL of Alexa Fluor 488 Goat anti mouse IgG (BioLegend, San Diego, CA, USA). After 15 min of incubation in the dark, the cells were resuspended with 1000 μL of cell staining buffer and analyzed in the flow cytometer (CyFlow®, SL, Partec, GmbH, Muenster, Germany). Flow cytometric analysis was carried out in triplicate and performed by Partec Flomax software.
(§2) The inhibitory impact of the two triazolo[3,4-b]thiadiazole derivatives KA25 and KA39 on the phosphorylation of either Akt1 (p-Akt1) or Akt2 (p-Akt2) was determined by the following formulas: p-Akt1(%) or p-Akt2 (%) = [(mean-xtreated − isotypetreated)]/[(mean-xuntreated − isotypeuntreated)] × 100, where the isotype value is subtracted from the mean-x value of the corresponding condition, including treated and untreated cells. As the formulas indicate, the difference in value of treated cells is divided by the difference in value of untreated cells (control group) to estimate the extent of inhibition. […]

Akt2 phosphorylation = test: Detection of Akt2 phosphorylation by intracellular flow cytometry; type: cell-based, human; settings: for decrease of Akt2 phospho-form: HT-29 cells; for phosphorylation of Akt2: GI50 and TGI concentrations
Description: as §1, §2

[1] = GI50 concentration (KA39 11.5 μΜ, KA25 1 μΜ), 3 h
[2] = GI50 concentration (KA39 11.5 μΜ, KA25 1 μΜ), 24 h
[3] = TGI concentration (KA39 15.9 μΜ, KA25 120 μΜ), 3 h
[4] = TGI concentration (KA39 15.9 μΜ, KA25 120 μΜ), 24 h
[5] = LoVo cells, 3 and 24 h (Figure S47)
[6] = SW403 cells, 3 and 24 h (Figure S48)

| Structure (SMILES) | decrease of Akt1 phospho-form (Akt1 phosphorylation; [1]) | decrease of Akt1 phospho-form (Akt1 phosphorylation; [2]) | decrease of Akt1 phospho-form (Akt1 phosphorylation; [3]) | decrease of Akt1 phospho-form (Akt1 phosphorylation; [4]) | phosphorylation of Akt1 (Akt1 phosphorylation; [5]) | phosphorylation of Akt1 (Akt1 phosphorylation; [6]) | decrease of Akt2 phospho-form (Akt2 phosphorylation; [1]) | decrease of Akt2 phospho-form (Akt2 phosphorylation; [2]) | decrease of Akt2 phospho-form (Akt2 phosphorylation; [3]) | decrease of Akt2 phospho-form (Akt2 phosphorylation; [4]) | phosphorylation of Akt2 (Akt2 phosphorylation; [5]) | phosphorylation of Akt2 (Akt2 phosphorylation; [6]) |
| --- | --- | --- | --- | --- | --- | --- | --- | --- | --- | --- | --- | --- |
| COc1cc(Cc2nnc3sc(C=Cc4ccc(F)cc4)nn23)c(S(=O)(=O)N(C)C)cc1OC [KA25] | 83.38% | 79.8% | 86.45% | 87.73% | significantly inhibited | significantly inhibited | 73.74% | 76.9% | 82.6% | 86.4% | significantly inhibited | significantly inhibited |
| COc1cc(Cc2nnc3sc(-c4cc([N+](=O)[O-])ccc4[N+](=O)[O-])nn23)c(S(=O)(=O)N(C)C)cc1OC [KA39] | 73.66% | 75.71% | 72.9% | 88.5% | significantly inhibited | significantly inhibited | 60.76% | 83.55% | 58.87% | 86% | significantly inhibited | significantly inhibited |
